Counter-ions that a name gives are not always drawn.
Target: T1, human H1 receptor (Homo sapiens, UniProt P35367)
T1 construct: purchased Euroscreen SA, Brussels, Belgium ES-390-M; host or cells: CHO-K1
Assay: Histamine H1 receptor binding, competition displacement of [3H]-pyrilamine
Details: competition displacement of 1 nM [3H]-pyrlamine; 2 μg membranes from recombinant CHO-K1 cells expressing the human H1 receptor; 1 hour at room temperature; read-out: H1 pKi (converted)

T1 sequence (P35367 whole entry): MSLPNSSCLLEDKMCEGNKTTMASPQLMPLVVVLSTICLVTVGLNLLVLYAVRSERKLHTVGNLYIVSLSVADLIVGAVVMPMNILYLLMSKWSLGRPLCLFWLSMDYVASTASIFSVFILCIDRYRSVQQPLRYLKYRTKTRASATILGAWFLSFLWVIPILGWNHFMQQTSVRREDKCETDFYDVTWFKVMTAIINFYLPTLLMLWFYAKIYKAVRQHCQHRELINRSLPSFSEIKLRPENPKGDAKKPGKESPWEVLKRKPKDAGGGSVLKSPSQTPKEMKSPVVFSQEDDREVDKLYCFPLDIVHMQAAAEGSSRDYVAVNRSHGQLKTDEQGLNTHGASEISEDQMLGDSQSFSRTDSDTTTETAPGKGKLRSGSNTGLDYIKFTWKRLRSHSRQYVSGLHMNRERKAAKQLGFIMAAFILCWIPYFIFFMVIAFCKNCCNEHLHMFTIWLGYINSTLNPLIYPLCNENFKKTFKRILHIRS

Structure (SMILES)	Ki [nM]
O=C(O)[C@H](Cc1cccnc1)N1CCC(CN2CCC(Oc3ccc(Cl)c(Cl)c3)CC2)CC1 [Example 42, (αS)-α-[4-[[4-(3,4-Dichlorophenoxy)-1-piperidinyl]methyl]-1-piperidinyl]-3-pyridinepropanoic acid]	50.1
Cn1cncc1C[C@@H](C(=O)O)N1CCC(CN2CCC(Oc3ccc(Cl)c(Cl)c3)CC2)CC1 [Example 81, (αS)-4-[[4-(3,4-Dichlorophenoxy)-1-piperidinyl]methyl]-α-[(1-methyl-1H-imidazol-5-yl)methyl]-1-piperidineacetic acid]	398
O=C(O)[C@H]([C@H](O)c1ccccc1)N1CCC(CN2CCC(Oc3ccc(Cl)c(Cl)c3)CC2)CC1 [Example 58, (αS)-4-[[4-(3,4-Dichlorophenoxy)-1-piperidinyl]methyl]-α-[(R)-hydroxyphenylmethyl]-1-piperidineacetic acid]	126
O=C(O)[C@H](Cc1cccs1)N1CCC(CN2CCC(Oc3ccc(Cl)c(Cl)c3)CC2)CC1 [Example 80, (αS)-4-[[4-(3,4Dichlorophenoxy)-1-piperidinyl]methyl]-α-(2-thienylmethyl)-1-piperidineacetic acid]	251
C[C@@H](c1ccccc1)[C@@H](C(=O)O)N1CCC(CN2CCC(Oc3ccc(Cl)c(Cl)c3)CC2)CC1 [Example 59, (αS)-4-[[4-(3,4-Dichlorophenoxy)-1-piperidinyl]methyl]-α-[(1S)-1-phenylethyl]-1-piperidineacetic acid]	63.1
O=C(O)[C@H](CCc1ccccc1)N1CCC(CN2CCC(Oc3ccc(Cl)c(Cl)c3)CC2)CC1 [Example 66, (αS)-4-[[4-(3,4-Dichlorophenoxy)-1-piperidinyl]methyl]-α-(2-phenylethyl)-1-piperidineacetic acid]	63.1
O=C(O)[C@H](CCc1ccccc1)N1CCC(CN2CCC(Oc3ccc(Cl)c(Cl)c3)CC2)CC1 [Example 78, (αS)-4-[[4-(3,4-Dichlorophenoxy)-1-piperidinyl]methyl]-α-(2-phenylethyl)-1-piperidineacetic acid dihydrochloride]	126

Next, values leading:

Ki [nM]	Structure (SMILES)
20	Cc1c(OC2CCN(CC3CCN([C@@H](Cc4cccc(C#N)c4)C(=O)O)CC3)CC2)ccc(Cl)c1Cl [Example 57, (αS)-α-[(3-Cyanophenyl)methyl]-4-[[4-(3,4-dichloro-2-methylphenoxy)-1-piperidinyl]methyl]-1-piperidineacetic acid]
31.6	Cc1c(Cl)ccc(OC2CCN(CC3CCN([C@@H](Cc4ccccc4)C(=O)O)CC3)CC2)c1Cl [Example 37, (αS)4-[[4-(2,4Dichloro-3-methylphenoxy)-1-piperidinyl]methyl]-α-(phenylmethyl)-1-piperidineacetic acid]
12.6	Cc1c(OC2CCN(CC3CCN([C@@H](Cc4ccccc4C#N)C(=O)O)CC3)CC2)ccc(Cl)c1Cl [Example 56, (αS)-α-[(2-Cyanophenyl)methyl]-4-[[4-(3,4-dichloro-2-methylphenoxy)-1-piperidinyl]methyl]-1-piperidineacetic acid]
158	Cc1c(Cl)ccc(OC2CCN(CC3CCN([C@@H](Cc4ccccc4)C(=O)O)CC3)CC2)c1Cl [Example 71, (αS)-4-[[4-(2,4-Dichloro-3-methylphenoxy-1-piperidinyl]methyl]-α-(phenylmethyl)-1-piperidineacetic acid, dihydrochloride salt]
